Experimental data published in US20040029254A1, “Method of screening anti-bacterial agents for effectiveness in treating persistant intracellular infections” (University of Washington, priority 2002, published 2004).
Converted amounts (≈) assume the structure as drawn.

Experiments:
Type in all cases: cell-based
[1] = test system: clinical isolates of C. trachomatis; assay: microbe, parasite or virus in culture
[2] = test system: C. trachomatis L2 (LGV serovar); assay: Anti-bacterial susceptibilities of reference strains
[3] = test system: C. trachomatis MoPn (mouse pneumonitis strain); assay: as above
[4] = test system: C. suis R-19 (porcine strain); details: McCoy cells; for MCC (microtiter): one freeze-thaw passage in microtiter plates; for MCC1 (shell vial): one passage in shell vials; for MIC (microtiter): tetracycline-resistant strain; for MCC3 (shell vial): three passages in shell vials
[5] = test system: C. trachomatis B,D,E,F,G,H,I,Ia,J,K (human genital serovars); assay: Anti-bacterial susceptibilities of reference strains

| Compound | MCC1 [1] [µg/mL] | MCC3 [1] [µg/mL] | MCC1 (shell vial) [2] [µg/mL] | MCC3 (shell vial) [2] [µg/mL] | MCC (microtiter) [2] [µg/mL] | MCC1 (shell vial) [3] [µg/mL] | MCC3 (shell vial) [3] [µg/mL] | MCC (microtiter) [3] [µg/mL] | MCC (microtiter) [4] [µg/mL] | MCC1 (shell vial) [4] [µg/mL] | MIC (microtiter) [4] [µg/mL] | MCC3 (shell vial) [4] [µg/mL] | MCC1 (shell vial) [5] [µg/mL] | MCC3 (shell vial) [5] [µg/mL] | MCC (microtiter) [5] [µg/mL] |
| --- | --- | --- | --- | --- | --- | --- | --- | --- | --- | --- | --- | --- | --- | --- | --- |
| CC1COc2c(N3CCN(C)CC3)c(F)cc3c(=O)c(C(=O)O)cn1c23 (stereo not drawn) [Ofloxacin, ofloxacin] | 8 to 16 | >128 | >8 | >128 | 1.0 | >8 | >128 | 1.0 | 1.0 | >8 | 0.5 (≈ 1.38 µM) | >128 | >8 | >128 | 1.0 |
| CCCN1CCN(c2cc(O)c3nc4c5c6c7c(C)c(O)c5c(=O)c(c-4oc3c2)NC(=O)/C(C)=C\C=C\[C@H](C)[C@H](O)[C@@H](C)[C@@H](O)[C@@H](C)[C@H](OC(C)=O)[C@H](C)[C@@H](OC)/C=C/O[C@@](C)(O7)C6=O)CC1 [KRM-1657] | 0.0005 to 0.001 | 0.001 to 0.002 | – | – | – | – | – | – | – | – | – | – | – | – | – |
| C[C@H]1c2cccc(O)c2C(=O)C2=C(O)[C@]3(O)C(=O)C(C(N)=O)=C(O)[C@@H](N(C)C)[C@@H]3[C@@H](O)[C@@H]21 [Doxycycline, doxycycline] | 4 to 8 | 32 to 64 | >8 | 32 | 0.125 | >8 | 64 | 0.5 | 2.0 | >8 | 1.0 (≈ 2.25 µM) | >128 | >8 | 16 to 32 | 0.125 |
| CC[C@H]1OC(=O)[C@H](C)[C@@H](O[C@H]2C[C@@](C)(OC)[C@@H](O)[C@H](C)O2)[C@H](C)[C@@H](O[C@@H]2O[C@H](C)C[C@H](N(C)C)[C@H]2O)[C@](C)(O)C[C@@H](C)CN(C)[C@H](C)[C@@H](O)[C@]1(C)O [Azithromycin, azithromycin] | 4 to 8 | 32 to 64 | >8 | 64 | 0.25 | >8 | 128 | 0.5 | 0.25 | >8 | – | >128 | >8 | 64 | 0.25 |
| CO[C@H]1/C=C/O[C@@]2(C)Oc3c(C)c(O)c4c(=O)c(c5oc6cc(N7CCN(CC(C)C)CC7)cc(O)c6nc-5c4c3C2=O)NC(=O)/C(C)=C\C=C\[C@H](C)[C@H](O)[C@@H](C)[C@@H](O)[C@@H](C)[C@H](OC(C)=O)[C@@H]1C [Rifalazil, rifalazil] | 0.001 to 0.002 | 0.004 to 0.008 | – | – | – | – | – | – | – | – | – | – | – | – | – |
